Like-named read-outs stand apart in the source and are kept apart here.
Tests used:
[1] = target: T1, HSV-1 DNA pol (Human herpesvirus 1, UniProt P04292); experiment: HSV DNA pol assay (high salt, 100 mM ammonium sulfate), 3H-TTP incorporation into nicked calf thymus DNA by cell extracts; format: biochemical; details: for high salt activity in the Y-MH202 yeast cell extracts (result in words): Y-MH202 extract, 23 µM ACVTP, 5.3 µM aphidicolin
Procedure: (§1) In order to determine whether HSV pol protein was expressed and whether HSV specific DNA polymerase activity could be detected in yeast cells containing pMH202, the following experiments were performed. This description represents only one example of how such a strain can be constructed. Other examples may include a different yeast host strain and/or a different transformation procedure. Yeast cells (Y 294) were transformed with pMH101 (control plasmid without the HSV pol gene) or pMH202 (expression plasmid with HSV pol gene) DNAs. Transformation of the yeast cells was accomplished using the method of J. D. Beggs (1978. Nature 275: 104 - 109). The transformants were selected for uracil prototrophy by growth on minimal media containing 182.2 g/L sorbitol; 20 g/L glucose; 6.7 g/L yeast nitrogen base (Difco) supplemented with 30µg/ml leucine, 20µg/ml histidine, 20µg/ml tryptophan and 2% glucose but lacking uracil. One colony of each type (designated Y-MH101 or Y-MH202, respectively) was selected at random for further analysis. 100 ml overnight cultures were grown from these two strains in minimal media (0.7% yeast nitrogen base [Difco]) containing the required amino acids as described above and 2% raffinose. The following day, cultures were divided in half, cells were pelleted, resuspended in 100 ml of fresh media containing either 2% raffinose or 2% galactose and again grown overnight. The following day, the four cultures were pelleted at 4°C. Cell lysates were prepared as described by Johnson et al. (1985 . Cell 43:369 - 377). This represents only one example of how such a lysate may be prepared. Cell pellets were resuspended in 1 ml 50 mM Tris-HCl, pH 8.0; 50mM NaCl, 1% dimethylsulfoxide; 10% glycerol; 5mM beta-mercaptoethanol; 10mM EDTA; 2mM benzamidine; and 1mM phenylmethylsulfonylfluoride (PMSF). Lysis was achieved by vortexing the cells 15 - 20 times for 1 minute in the presence of an equal volume of acid-washed glass beads. The extent of lysis was monitored by microscopy. The lysed extracts were transferred to 1.5 ml microfuge tubes and centrifuged for 10 minutes at 12,000 x g. Extracts were stored at -80°C in 15% glycerol until use. The final protein concentration of each of the extracts was between 5 - 6 mg/ml.
Infected cell extracts were prepared essentially as described by Karkas et al. (1986. J. Med. Chem. 29:842 - 848). HeLa S3 cells were infected with HSV-1 KOS at a multiplicity of infection of 10 plaque forming units per cell and harvested at 16 hours post infection. […]
(§2) The lysates were also analyzed for DNA polymerase enzyme activity. […]

[2] = target: T1, HSV-1 DNA pol; experiment: as above; format: biochemical; parameters: made in house; host or cells: Saccharomyces cerevisiae Y294 carrying pMH202 (strain Y-MH202), galactose-induced, crude cell lysate; details: HSV pol assay conditions
Procedure: In order to determine whether HSV pol protein was expressed and whether HSV specific DNA polymerase activity could be detected in yeast cells containing pMH202, the following experiments were performed. This description represents only one example of how such a strain can be constructed. Other examples may include a different yeast host strain and/or a different transformation procedure. Yeast cells (Y 294) were transformed with pMH101 (control plasmid without the HSV pol gene) or pMH202 (expression plasmid with HSV pol gene) DNAs. Transformation of the yeast cells was accomplished using the method of J. D. Beggs (1978. Nature 275: 104 - 109). The transformants were selected for uracil prototrophy by growth on minimal media containing 182.2 g/L sorbitol; 20 g/L glucose; 6.7 g/L yeast nitrogen base (Difco) supplemented with 30µg/ml leucine, 20µg/ml histidine, 20µg/ml tryptophan and 2% glucose but lacking uracil. One colony of each type (designated Y-MH101 or Y-MH202, respectively) was selected at random for further analysis. 100 ml overnight cultures were grown from these two strains in minimal media (0.7% yeast nitrogen base [Difco]) containing the required amino acids as described above and 2% raffinose. […] The extent of lysis was monitored by microscopy. […]
as §2

[3] = target: yeast alpha DNA pol (Saccharomyces cerevisiae, UniProt P13382); experiment: Yeast DNA polymerase (alpha pol) assay (low salt), 3H-TTP incorporation by yeast cell extracts; format: biochemical, Saccharomyces cerevesiae; details: for low salt DNA pol activity, sensitivity to drug (result in words): all of the extracts tested (also HSV-infected HeLa extract), at the concentration tested; for inhibition at 5.3 µM: aphidicolin 5.3 µM
yeast alpha DNA pol, sequence (P13382 2-1468): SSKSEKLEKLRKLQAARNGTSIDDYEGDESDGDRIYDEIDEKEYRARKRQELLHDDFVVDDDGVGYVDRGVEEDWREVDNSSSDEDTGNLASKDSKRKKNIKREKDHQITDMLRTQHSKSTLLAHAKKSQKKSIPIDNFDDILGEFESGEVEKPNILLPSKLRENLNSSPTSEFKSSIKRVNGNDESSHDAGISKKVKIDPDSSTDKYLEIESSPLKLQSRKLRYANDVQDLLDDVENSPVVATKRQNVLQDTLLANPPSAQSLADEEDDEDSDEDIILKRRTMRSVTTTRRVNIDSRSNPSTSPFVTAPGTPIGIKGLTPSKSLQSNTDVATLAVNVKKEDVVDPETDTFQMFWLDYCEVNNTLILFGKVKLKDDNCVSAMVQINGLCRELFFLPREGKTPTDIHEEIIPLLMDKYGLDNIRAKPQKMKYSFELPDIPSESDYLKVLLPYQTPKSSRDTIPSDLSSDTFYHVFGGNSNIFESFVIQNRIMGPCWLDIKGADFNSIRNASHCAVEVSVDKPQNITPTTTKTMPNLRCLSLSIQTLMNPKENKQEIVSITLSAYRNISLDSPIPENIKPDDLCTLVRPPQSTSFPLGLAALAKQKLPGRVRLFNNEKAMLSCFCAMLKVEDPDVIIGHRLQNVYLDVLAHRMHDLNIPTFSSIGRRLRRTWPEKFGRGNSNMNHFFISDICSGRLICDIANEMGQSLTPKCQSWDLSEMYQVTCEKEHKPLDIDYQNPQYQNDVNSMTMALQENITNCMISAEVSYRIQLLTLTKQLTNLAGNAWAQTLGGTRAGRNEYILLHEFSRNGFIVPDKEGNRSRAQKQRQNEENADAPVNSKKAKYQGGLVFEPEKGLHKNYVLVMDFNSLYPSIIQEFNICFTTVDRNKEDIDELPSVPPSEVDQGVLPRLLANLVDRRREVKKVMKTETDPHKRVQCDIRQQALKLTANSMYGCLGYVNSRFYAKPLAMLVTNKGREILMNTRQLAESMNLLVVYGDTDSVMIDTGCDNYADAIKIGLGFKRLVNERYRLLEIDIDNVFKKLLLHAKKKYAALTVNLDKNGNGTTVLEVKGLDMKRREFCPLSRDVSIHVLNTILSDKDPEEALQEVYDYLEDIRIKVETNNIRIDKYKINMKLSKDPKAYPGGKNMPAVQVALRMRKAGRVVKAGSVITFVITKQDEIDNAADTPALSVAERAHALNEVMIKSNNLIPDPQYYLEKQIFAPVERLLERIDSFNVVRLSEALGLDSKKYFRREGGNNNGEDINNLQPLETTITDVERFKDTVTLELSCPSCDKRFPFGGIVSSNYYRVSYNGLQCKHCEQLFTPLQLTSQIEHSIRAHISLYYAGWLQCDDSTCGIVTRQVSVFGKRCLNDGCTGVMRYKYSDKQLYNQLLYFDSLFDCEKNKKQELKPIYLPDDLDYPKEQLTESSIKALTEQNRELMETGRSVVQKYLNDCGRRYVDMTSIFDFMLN
Procedure: as §1
The lysates were also analyzed for DNA polymerase enzyme activity. Each of the four yeast cell extracts was assayed for DNA pol activity under two sets of conditions. The yeast DNA pol assay conditions were designed to detect the alpha polymerase which should be present in all lysates. The HSV DNA pol assay conditions were chosen to detect HSV specific DNA pol activity which is enhanced by high salt (100mM ammonium sulfate). In contrast, the yeast alpha DNA pol is inhibited under these salt conditions. The assay for yeast DNA polymerase was performed essentially as described in Celniker and Campbell (1982. Cell 31:201 - 213), but without addition of ribonucleotide triphosphates. Reaction mixtures contained 5µl of enzyme extract (25 - 30 µg of protein) in 10mM Tris-HCl, pH 7.5; 10 mM MgCl₂; 10 mM (NH₄)₂SO₄; 0.1 mM DTT; 100 µM each of dATP, dCTP, dGTP; 100 µM ³H-TTP (10 cpm/pmol); 40 µg/ml nicked calf thymus DNA; and 2 mM spermidine in a final volume of 50 µl. The assay for the HSV-1 DNA pol was performed as follows. […] The filters were washed thoroughly, twice using 1N HCl and once using 95% ethanol; air dried and quantitated by scintillation counting using a LKB 1214 Rackbeta counter at 63% efficiency. […]

T1 sequence (P04292 whole entry): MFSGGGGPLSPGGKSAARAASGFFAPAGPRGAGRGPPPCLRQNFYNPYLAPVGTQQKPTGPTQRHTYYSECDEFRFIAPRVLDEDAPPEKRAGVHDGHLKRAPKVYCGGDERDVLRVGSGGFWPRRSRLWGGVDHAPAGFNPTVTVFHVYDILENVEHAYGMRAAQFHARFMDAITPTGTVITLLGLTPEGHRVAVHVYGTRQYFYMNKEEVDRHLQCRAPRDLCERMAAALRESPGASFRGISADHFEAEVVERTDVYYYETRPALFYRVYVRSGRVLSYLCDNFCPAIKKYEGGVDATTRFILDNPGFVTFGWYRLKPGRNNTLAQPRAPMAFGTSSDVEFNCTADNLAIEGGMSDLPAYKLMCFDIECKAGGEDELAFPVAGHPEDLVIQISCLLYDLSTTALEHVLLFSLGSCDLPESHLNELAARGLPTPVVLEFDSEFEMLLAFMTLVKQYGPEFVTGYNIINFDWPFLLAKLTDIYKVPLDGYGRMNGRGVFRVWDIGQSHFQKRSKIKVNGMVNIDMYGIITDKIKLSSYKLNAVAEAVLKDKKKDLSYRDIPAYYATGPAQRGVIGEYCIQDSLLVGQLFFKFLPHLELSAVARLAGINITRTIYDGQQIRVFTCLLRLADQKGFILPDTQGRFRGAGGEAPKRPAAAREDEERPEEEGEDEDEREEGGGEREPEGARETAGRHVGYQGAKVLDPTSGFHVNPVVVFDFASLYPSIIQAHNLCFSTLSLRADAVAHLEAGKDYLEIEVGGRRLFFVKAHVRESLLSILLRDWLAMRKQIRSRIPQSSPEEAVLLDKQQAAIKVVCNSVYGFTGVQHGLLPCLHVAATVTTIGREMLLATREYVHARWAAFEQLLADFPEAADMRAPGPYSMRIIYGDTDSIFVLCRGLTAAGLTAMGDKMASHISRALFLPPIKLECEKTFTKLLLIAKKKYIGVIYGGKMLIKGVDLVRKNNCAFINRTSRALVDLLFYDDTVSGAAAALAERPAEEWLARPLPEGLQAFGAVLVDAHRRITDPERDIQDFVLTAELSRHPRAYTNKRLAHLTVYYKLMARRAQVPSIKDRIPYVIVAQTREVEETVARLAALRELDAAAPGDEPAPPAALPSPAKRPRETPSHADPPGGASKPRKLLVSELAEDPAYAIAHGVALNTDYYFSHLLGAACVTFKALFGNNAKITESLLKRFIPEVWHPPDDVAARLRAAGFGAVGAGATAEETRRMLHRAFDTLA

Row | Structure (SMILES) | high salt activity in the Y-MH202 yeast cell extracts (result in words) [1] | inhibition at 5.3 µM ([1]; read-out: % Inhibition by Drug Aphidicolin, Yeast Expressor (Y-MH202, galactose) extract, HSV pol assay conditions, aphidicolin 5.3 µM) [%] | inhibition at 5.3 µM ([2]; read-out: % Inhibition by Drug Aphidicolin, HSV-infected HeLa cells extract, aphidicolin 5.3 µM) [%] | low salt DNA pol activity, sensitivity to drug (result in words) [3] | inhibition at 5.3 µM ([3]; read-out: % Inhibition by Drug Aphidicolin, Yeast Control (Y-MH101, galactose) extract, alpha pol assay conditions) [%] | inhibition at 5.3 µM ([3]; read-out: % Inhibition by Drug Aphidicolin, Yeast Expressor (Y-MH202, galactose) extract, alpha pol assay conditions) [%] | inhibition at 23 µM ([1]; Yeast Expressor (Y-MH202, galactose) extract, HSV pol assay conditions, ACVTP 23 µM, read-out: % Inhibition by Drug ACVTP) [%] | inhibition at 23 µM ([2]; HSV-infected HeLa cells extract, ACVTP 23 µM, read-out: % Inhibition by Drug ACVTP) [%] | inhibition at 23 µM ([3]; Yeast Control (Y-MH101, galactose) extract, alpha pol assay conditions, ACVTP 23 µM, 0% means relative activity ≥1.0, read-out: % Inhibition by Drug ACVTP) [%]
1 | C[C@@]1(CO)[C@H](O)CC[C@@]2(C)[C@H]1CC[C@H]1C[C@@H]3C[C@@]12CC[C@]3(O)CO [Aphidicolin, aphidicolin] | inhibited | 94 | 90 | sensitive | 88 | 80 | – | – | –
2 | Nc1nc2c(ncn2COCCOP(=O)(O)OP(=O)(O)OP(=O)(O)O)c(=O)[nH]1 [ACVTP, acyclovir triphosphate] | inhibited | – | – | not sensitive | – | – | 93 | 89 | 0
